Measured values taken from PMC8213057, “Targeting ALK2: An Open Science Approach to Developing Therapeutics for the Treatment of Diffuse Intrinsic Pontine Glioma” (Journal of Medicinal Chemistry, 2020).

How the values were obtained:
NEK2 = molecular target: T1, NEK2 (Homo sapiens, UniProt P51955); conditions: 1 μM; Run 1, Run 2
T1 sequence (P51955 1-445): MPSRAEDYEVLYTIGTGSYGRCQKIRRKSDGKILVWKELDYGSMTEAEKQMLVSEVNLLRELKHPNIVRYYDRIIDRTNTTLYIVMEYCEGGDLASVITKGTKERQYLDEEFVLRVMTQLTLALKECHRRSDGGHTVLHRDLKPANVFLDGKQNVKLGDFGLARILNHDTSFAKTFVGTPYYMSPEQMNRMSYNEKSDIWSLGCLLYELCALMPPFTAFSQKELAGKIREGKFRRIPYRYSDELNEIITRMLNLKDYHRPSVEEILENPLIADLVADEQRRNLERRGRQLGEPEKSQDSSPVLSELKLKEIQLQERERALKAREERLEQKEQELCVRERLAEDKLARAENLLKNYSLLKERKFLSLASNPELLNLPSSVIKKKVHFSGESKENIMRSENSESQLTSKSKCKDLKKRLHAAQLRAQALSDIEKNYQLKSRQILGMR

DAPK1 = DAPK1 (Homo sapiens, UniProt P53355); assay: biochemical; conditions: read-out: % enzyme activity, 1 μM; Run 1, Run 2
PKMYT1 = molecular target: T2, PKMYT1 (Homo sapiens, UniProt Q99640); conditions: 1 μM; Run 1, Run 2
T2 sequence (Q99640 1-499): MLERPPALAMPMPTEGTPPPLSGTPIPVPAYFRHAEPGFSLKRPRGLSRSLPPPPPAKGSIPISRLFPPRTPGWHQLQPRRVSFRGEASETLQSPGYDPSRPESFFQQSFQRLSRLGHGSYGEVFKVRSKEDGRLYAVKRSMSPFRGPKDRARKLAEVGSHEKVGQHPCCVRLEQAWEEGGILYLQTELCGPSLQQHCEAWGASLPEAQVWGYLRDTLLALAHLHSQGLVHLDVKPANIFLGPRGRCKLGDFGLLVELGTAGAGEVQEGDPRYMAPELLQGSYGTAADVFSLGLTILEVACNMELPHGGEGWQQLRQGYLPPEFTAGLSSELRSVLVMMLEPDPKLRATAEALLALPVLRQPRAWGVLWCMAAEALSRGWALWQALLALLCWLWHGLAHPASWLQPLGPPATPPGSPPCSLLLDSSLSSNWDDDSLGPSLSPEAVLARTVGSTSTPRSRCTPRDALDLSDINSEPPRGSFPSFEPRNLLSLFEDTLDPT

EPHB3 = molecular target: T3, EPHB3 (Homo sapiens, UniProt P54753); conditions: 1 μM; Run 1, Run 2
T3 sequence (P54753 34-998): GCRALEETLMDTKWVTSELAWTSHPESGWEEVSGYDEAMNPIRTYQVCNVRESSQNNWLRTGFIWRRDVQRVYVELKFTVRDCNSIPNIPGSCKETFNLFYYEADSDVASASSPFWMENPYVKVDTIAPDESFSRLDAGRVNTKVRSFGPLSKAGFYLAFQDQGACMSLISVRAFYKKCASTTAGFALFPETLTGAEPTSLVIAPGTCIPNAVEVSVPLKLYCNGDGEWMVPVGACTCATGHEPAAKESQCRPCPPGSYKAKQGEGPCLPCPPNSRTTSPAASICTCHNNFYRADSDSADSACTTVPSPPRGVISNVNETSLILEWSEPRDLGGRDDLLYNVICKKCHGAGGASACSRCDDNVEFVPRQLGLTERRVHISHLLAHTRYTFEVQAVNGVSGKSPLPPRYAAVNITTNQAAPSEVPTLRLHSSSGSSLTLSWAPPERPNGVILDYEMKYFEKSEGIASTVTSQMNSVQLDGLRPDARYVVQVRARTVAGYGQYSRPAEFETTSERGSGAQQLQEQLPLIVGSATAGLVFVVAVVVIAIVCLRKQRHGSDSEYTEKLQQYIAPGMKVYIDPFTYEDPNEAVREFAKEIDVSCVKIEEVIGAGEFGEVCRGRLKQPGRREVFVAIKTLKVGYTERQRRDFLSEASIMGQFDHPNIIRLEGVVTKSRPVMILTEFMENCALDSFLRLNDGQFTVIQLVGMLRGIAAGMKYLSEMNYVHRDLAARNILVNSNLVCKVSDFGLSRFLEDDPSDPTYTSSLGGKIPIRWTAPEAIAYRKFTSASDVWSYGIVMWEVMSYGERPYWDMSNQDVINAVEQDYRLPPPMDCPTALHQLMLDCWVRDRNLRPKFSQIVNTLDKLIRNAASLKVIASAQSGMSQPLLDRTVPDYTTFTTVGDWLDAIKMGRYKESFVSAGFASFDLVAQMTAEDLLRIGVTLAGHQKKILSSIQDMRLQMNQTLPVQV

TESK2 = TESK2 (Homo sapiens, UniProt Q96S53); assay: biochemical; conditions: read-out: % enzyme activity, 1 μM; Run 1, Run 2
HPK1/MAP4K1 = HPK1/MAP4K1 (Homo sapiens, UniProt Q92918); conditions: 1 μM; Run 1, Run 2
IRAK1 = IRAK1 (Homo sapiens, UniProt P51617); conditions: 1 μM; Run 1, Run 2
MINK/MINK1 = molecular target: T4, MINK/MINK1 (Homo sapiens, UniProt Q8N4C8); assay: 375-member kinase panel; type: biochemical; conditions: Run 1, Run 2; for % enzyme activity: 1 μM; for remaining activity at 1 µM: read-out: % enzyme activity, 1 μM
T4 construct: purchased Reaction Biology Corporation

PIM3 = PIM3 (Homo sapiens, UniProt Q86V86); assay: biochemical; conditions: read-out: % enzyme activity, 1 μM; Run 1, Run 2
RSK3 = RSK3 (Homo sapiens, UniProt Q15349); assay: biochemical; conditions: read-out: % enzyme activity, 1 μM; Run 1, Run 2
VRK1 = molecular target: T5, VRK1 (Homo sapiens, UniProt Q99986); conditions: 1 μM; Run 1, Run 2
T5 sequence (Q99986 1-396): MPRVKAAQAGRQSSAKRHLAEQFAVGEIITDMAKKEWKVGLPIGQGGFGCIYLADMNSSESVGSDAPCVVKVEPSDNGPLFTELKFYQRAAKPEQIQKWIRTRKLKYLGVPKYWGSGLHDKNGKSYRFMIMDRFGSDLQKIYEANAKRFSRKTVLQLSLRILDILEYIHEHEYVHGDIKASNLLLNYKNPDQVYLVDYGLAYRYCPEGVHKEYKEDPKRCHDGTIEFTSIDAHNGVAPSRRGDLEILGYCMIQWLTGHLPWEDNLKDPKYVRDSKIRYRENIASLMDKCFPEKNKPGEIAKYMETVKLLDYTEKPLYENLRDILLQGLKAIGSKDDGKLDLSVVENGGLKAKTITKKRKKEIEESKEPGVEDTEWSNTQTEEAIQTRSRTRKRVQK

T4 sequence (Q8N4C8 whole entry): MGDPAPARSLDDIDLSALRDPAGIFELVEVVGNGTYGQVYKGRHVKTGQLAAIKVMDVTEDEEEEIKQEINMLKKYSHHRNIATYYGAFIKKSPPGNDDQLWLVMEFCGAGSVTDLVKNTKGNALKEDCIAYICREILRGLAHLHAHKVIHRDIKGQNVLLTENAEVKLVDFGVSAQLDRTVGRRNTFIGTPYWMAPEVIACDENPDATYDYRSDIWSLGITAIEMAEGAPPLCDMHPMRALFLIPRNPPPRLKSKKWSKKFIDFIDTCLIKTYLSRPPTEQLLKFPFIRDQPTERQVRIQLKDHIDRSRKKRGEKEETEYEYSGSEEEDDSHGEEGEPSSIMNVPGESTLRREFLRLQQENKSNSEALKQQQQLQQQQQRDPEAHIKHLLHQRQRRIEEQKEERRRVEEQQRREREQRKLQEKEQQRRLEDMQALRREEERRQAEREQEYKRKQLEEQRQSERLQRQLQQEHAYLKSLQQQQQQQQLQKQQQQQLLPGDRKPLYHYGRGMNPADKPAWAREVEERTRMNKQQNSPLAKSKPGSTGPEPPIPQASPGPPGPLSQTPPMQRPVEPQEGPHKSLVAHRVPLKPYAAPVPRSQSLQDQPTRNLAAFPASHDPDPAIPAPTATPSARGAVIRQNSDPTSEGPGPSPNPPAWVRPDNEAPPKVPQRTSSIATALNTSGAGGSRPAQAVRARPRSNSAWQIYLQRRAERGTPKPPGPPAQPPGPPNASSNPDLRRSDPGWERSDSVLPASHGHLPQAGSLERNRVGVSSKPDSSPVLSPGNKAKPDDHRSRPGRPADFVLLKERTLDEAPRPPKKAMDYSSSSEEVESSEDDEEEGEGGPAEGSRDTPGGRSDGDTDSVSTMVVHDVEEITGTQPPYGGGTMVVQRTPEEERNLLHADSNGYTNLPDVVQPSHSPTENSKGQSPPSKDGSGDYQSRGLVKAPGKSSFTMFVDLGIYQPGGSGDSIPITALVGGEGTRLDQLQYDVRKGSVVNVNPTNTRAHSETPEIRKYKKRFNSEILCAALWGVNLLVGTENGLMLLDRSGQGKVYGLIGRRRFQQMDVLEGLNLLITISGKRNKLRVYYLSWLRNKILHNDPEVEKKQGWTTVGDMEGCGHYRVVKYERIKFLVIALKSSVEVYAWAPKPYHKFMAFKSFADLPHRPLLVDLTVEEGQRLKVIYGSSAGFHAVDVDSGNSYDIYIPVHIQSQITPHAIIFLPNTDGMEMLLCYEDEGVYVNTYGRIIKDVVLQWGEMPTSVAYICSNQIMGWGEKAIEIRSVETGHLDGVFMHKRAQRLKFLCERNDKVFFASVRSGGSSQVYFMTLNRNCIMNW
Chain of TESK2 (Q96S53 whole entry): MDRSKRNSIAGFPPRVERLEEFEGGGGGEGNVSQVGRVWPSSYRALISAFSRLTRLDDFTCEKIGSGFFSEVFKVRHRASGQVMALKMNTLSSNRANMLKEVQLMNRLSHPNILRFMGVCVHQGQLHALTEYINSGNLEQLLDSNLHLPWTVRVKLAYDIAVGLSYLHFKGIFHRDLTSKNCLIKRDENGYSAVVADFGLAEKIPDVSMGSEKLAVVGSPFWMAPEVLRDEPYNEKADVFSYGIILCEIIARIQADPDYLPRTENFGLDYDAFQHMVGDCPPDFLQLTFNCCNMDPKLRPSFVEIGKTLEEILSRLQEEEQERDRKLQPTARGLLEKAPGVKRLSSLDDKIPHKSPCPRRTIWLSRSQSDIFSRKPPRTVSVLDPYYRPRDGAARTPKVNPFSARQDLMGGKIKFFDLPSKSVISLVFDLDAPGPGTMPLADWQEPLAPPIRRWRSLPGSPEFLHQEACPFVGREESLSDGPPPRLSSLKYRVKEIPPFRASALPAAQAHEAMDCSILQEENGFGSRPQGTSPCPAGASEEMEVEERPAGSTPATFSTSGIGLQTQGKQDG
Chain of DAPK1 (P53355 whole entry): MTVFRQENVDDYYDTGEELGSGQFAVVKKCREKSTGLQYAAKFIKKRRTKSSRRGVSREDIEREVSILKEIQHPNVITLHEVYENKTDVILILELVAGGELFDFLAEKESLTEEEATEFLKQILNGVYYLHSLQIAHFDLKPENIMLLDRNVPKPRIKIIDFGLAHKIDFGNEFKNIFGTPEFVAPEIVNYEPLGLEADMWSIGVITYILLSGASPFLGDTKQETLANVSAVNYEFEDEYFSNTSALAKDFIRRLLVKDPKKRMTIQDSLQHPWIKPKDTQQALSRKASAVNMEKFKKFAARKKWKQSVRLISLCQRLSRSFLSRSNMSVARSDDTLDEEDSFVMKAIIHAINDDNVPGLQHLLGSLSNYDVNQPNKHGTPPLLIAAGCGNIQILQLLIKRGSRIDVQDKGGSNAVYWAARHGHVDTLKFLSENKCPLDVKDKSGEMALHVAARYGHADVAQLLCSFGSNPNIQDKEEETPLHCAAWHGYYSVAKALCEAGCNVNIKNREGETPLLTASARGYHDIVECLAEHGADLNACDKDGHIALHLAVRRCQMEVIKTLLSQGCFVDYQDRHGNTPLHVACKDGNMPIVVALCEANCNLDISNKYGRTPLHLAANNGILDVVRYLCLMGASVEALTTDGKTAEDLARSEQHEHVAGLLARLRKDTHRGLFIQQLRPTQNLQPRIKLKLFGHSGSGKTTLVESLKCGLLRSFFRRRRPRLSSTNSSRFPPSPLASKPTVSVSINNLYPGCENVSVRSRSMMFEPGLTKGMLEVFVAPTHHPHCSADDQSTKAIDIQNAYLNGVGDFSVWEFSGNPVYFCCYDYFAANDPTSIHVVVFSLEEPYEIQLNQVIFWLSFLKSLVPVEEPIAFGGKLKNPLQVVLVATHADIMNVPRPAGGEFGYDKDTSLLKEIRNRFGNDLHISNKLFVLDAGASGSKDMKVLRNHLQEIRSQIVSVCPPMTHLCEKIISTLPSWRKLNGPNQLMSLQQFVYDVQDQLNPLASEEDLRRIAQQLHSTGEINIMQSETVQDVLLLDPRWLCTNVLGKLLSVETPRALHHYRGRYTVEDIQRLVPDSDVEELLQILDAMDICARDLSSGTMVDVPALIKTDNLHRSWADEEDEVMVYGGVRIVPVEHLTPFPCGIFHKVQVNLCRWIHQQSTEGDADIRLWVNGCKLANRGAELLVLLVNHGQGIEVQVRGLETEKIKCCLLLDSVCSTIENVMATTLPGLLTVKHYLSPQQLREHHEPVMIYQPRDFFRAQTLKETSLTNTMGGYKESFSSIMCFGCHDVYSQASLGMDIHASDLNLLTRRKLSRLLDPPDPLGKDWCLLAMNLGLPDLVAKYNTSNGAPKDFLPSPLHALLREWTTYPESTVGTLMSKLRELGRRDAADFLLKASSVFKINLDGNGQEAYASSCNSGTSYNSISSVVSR
Chain of IRAK1 (P51617 whole entry): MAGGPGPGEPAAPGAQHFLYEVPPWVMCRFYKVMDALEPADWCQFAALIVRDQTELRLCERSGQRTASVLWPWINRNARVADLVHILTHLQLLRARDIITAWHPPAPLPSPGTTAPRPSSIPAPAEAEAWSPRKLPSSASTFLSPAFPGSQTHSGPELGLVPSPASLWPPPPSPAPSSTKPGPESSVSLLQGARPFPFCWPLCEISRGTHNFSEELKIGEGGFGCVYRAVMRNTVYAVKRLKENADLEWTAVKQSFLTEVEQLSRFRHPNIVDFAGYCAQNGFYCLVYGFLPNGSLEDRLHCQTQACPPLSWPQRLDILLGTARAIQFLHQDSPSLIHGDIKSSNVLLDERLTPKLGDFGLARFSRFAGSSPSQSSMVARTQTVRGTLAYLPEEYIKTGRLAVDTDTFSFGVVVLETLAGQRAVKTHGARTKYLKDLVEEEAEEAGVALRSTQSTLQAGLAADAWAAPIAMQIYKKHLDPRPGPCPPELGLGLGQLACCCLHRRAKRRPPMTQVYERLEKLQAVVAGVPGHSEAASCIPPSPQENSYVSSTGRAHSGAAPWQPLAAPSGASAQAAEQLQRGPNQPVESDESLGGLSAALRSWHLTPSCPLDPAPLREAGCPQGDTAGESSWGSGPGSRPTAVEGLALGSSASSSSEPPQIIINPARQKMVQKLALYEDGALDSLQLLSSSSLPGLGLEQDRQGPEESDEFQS
Chain of RSK3 (Q15349 whole entry): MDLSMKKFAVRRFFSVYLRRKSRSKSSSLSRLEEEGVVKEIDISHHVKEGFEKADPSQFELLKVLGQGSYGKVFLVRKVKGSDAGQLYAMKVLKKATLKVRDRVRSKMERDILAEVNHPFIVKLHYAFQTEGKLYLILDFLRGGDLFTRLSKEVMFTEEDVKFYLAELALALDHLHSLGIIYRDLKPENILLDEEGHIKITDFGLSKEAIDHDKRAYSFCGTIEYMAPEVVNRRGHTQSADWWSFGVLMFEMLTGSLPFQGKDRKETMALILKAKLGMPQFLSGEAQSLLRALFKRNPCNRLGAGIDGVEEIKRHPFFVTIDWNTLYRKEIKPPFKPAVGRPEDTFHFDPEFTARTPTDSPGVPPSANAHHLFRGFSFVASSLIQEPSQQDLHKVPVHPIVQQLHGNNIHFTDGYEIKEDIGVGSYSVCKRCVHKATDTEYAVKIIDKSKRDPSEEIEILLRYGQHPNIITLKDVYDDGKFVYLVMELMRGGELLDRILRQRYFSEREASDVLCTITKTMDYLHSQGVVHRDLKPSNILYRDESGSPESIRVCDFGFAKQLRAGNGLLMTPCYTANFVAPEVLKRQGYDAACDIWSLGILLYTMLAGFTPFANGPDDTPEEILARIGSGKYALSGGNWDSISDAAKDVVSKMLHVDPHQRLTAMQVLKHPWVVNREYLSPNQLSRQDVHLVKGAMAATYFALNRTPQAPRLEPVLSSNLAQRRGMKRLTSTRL

`COc1cc(-c2cncc(-c3ccc(N4CCN(C)CC4)cc3)c2C)cc(F)c1C(N)=O` [Compound 26a, 2-Fluoro-6-methoxy-4-(4-methyl-5-(4-(4-methylpiperazin-1-yl)phenyl)pyridin-3-yl)benzamide] was tested, and the “% enzyme activity” value (NEK2) was 90.39%, the remaining activity at 1 µM (DAPK1) was 95.7% and the “% enzyme activity” value (PKMYT1) was 100.09%. For the same molecule, the “% enzyme activity” value (EPHB3) was 95.16%, the remaining activity at 1 µM (TESK2) was 93.9% and the “% enzyme activity” value (HPK1/MAP4K1) was 57.53%. For the same molecule, the “% enzyme activity” value (IRAK1) was 101.36%, the “% enzyme activity” value (MINK/MINK1) was 22.65% and the remaining activity at 1 µM (MINK/MINK1) was 24.1%. The remaining activity at 1 µM (PIM3) was 100%, the remaining activity at 1 µM (RSK3) was 92.2% and the “% enzyme activity” value (VRK1) was 100.69%.
In the case of `COc1cc(-c2cncc(-c3ccc(N4C[C@@H](C)N(C)[C@@H](C)C4)cc3)c2C)cc(F)c1C(N)=O` [Compound 26c, 2-Fluoro-6-methoxy-4-(4-methyl-5-(4-((3R,5S)-3,4,5-trimethylpiperazin-1-yl)phenyl)pyridin-3-yl)benzamide], the “% enzyme activity” value (NEK2) is reported as 96.23%, the remaining activity at 1 µM (DAPK1) is reported as 98.8% and the “% enzyme activity” value (PKMYT1) is reported as 92.38%. The “% enzyme activity” value (EPHB3) was 96.08%, the remaining activity at 1 µM (TESK2) was 92.2% and the “% enzyme activity” value (HPK1/MAP4K1) was 74.31%. For the same molecule, the “% enzyme activity” value (IRAK1) was 97.90%, the “% enzyme activity” value (MINK/MINK1) was 29.65% and the remaining activity at 1 µM (MINK/MINK1) was 30.2%. The remaining activity at 1 µM (PIM3) was 107%, the remaining activity at 1 µM (RSK3) was 101% and the “% enzyme activity” value (VRK1) was 98.74%.
